# According to PubChem BioAssay AID1963860 (Molecular Pharmacology Branch, DTP, NCI, 2024):
# System: CN0375-F725-PDC KRAS spheroid viability
# Assay: Anticancer human tumor CN0375-F725-PDC patient-derived colon carcinoma cell line growth inhibition [KRAS2]
# Conditions: spheroids with HUVEC and MSC; for IC50: curve of first compound; for viability, T/C: stronger effect = lower value
# Outline: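 Combination screen of spheroid viability in tumor-cell co-cultures with endothelial (HUVEC) and mesenchymal stem cell stroma. Each agent was tested in half-log dilutions, topping at clinical Cmax or at 10 microM without a known Cmax.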
# [1] = second compound 0.1 µM, first compound 0.000316 µM
# [2] = second compound 0.1 µM, first compound 0.001 µM
# [3] = second compound 0.1 µM, first compound 0.00316 µM
# [4] = second compound 0.1 µM, first compound 0.01 µM
# [5] = second compound 0.1 µM, first compound 0.0316 µM
# [6] = second compound 0.316 µM, first compound 0.000316 µM
# [7] = second compound 0.316 µM, first compound 0.001 µM
# [8] = second compound 0.316 µM, first compound 0.00316 µM
# [9] = second compound 0.316 µM, first compound 0.01 µM
# [10] = second compound 0.316 µM, first compound 0.0316 µM
# [11] = second compound 1 µM, first compound 0.000316 µM
# [12] = second compound 1 µM, first compound 0.001 µM
# [13] = second compound 1 µM, first compound 0.00316 µM
# [14] = second compound 1 µM, first compound 0.01 µM
# [15] = second compound 1 µM, first compound 0.0316 µM
# [16] = second compound 3.16 µM, first compound 0.000316 µM
# [17] = second compound 3.16 µM, first compound 0.001 µM
# [18] = second compound 3.16 µM, first compound 0.00316 µM
# [19] = second compound 3.16 µM, first compound 0.01 µM
# [20] = second compound 3.16 µM, first compound 0.0316 µM
# [21] = second compound 10 µM, first compound 0.000316 µM
# [22] = second compound 10 µM, first compound 0.001 µM
# [23] = second compound 10 µM, first compound 0.00316 µM
# [24] = second compound 10 µM, first compound 0.01 µM
# [25] = second compound 10 µM, first compound 0.0316 µM
# [26] = second compound 0.1 µM, first compound 0.1 µM
# [27] = second compound 0.316 µM, first compound 0.1 µM
# [28] = second compound 1 µM, first compound 0.1 µM
# [29] = second compound 3.16 µM, first compound 0.1 µM
# [30] = second compound 10 µM, first compound 0.1 µM
# [31] = second compound 0.1 µM, first compound 0.316 µM
# [32] = second compound 0.1 µM, first compound 1 µM
# [33] = second compound 0.1 µM, first compound 3.16 µM
# [34] = second compound 0.1 µM, first compound 10 µM
# [35] = second compound 0.316 µM, first compound 0.316 µM
# [36] = second compound 0.316 µM, first compound 1 µM
# [37] = second compound 0.316 µM, first compound 3.16 µM
# [38] = second compound 0.316 µM, first compound 10 µM
# [39] = second compound 1 µM, first compound 0.316 µM
# [40] = second compound 1 µM, first compound 1 µM
# [41] = second compound 1 µM, first compound 3.16 µM
# [42] = second compound 1 µM, first compound 10 µM
# [43] = second compound 3.16 µM, first compound 0.316 µM
# [44] = second compound 3.16 µM, first compound 1 µM
# [45] = second compound 3.16 µM, first compound 3.16 µM
# [46] = second compound 3.16 µM, first compound 10 µM
# [47] = second compound 10 µM, first compound 0.316 µM
# [48] = second compound 10 µM, first compound 1 µM
# [49] = second compound 10 µM, first compound 3.16 µM
# [50] = second compound 10 µM, first compound 10 µM
# 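Note: spheroids exposed to agents for 7 days.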
smiles,measurement,setting,value
CC(=O)Nc1cccc(-n2c(=O)n(C3CC3)c(=O)c3c(Nc4ccc(I)cc4F)n(C)c(=O)c(C)c32)c1 + CC1OCC2(CCN(c3cnc(Sc4ccnc(N)c4Cl)c(N)n3)CC2)C1N,IC50,second compound 0.1 µM,4.59 nM
same,IC50,second compound 0.316 µM,2.09 nM
same,IC50,second compound 1 µM,1.61 nM
same,IC50,second compound 3.16 µM,0.826 nM
same,IC50,second compound 10 µM,0.257 nM
same,"viability, T/C","second compound 0.1 µM, first compound 0.0001 µM",90.5%
same,"viability, T/C",[1],79.2%
same,"viability, T/C",[2],64%
same,"viability, T/C",[3],54.7%
same,"viability, T/C",[4],42.8%
same,"viability, T/C",[5],30.5%
same,"viability, T/C","second compound 0.316 µM, first compound 0.0001 µM",84.5%
same,"viability, T/C",[6],75.8%
same,"viability, T/C",[7],57.5%
same,"viability, T/C",[8],44.9%
same,"viability, T/C",[9],39.2%
same,"viability, T/C",[10],32.5%
same,"viability, T/C","second compound 1 µM, first compound 0.0001 µM",78.4%
same,"viability, T/C",[11],66.8%
same,"viability, T/C",[12],55.1%
same,"viability, T/C",[13],42.5%
same,"viability, T/C",[14],35%
same,"viability, T/C",[15],27.4%
same,"viability, T/C","second compound 3.16 µM, first compound 0.0001 µM",66.5%
same,"viability, T/C",[16],65.8%
same,"viability, T/C",[17],45.2%
same,"viability, T/C",[18],36.2%
same,"viability, T/C",[19],31.4%
same,"viability, T/C",[20],27.2%
same,"viability, T/C","second compound 10 µM, first compound 0.0001 µM",63.1%
same,"viability, T/C",[21],46.4%
same,"viability, T/C",[22],37.6%
same,"viability, T/C",[23],30%
same,"viability, T/C",[24],23.5%
same,"viability, T/C",[25],24.6%
CC(C)n1nc(-c2ccc3oc(N)nc3c2)c2c(N)ncnc21 + CC1OCC2(CCN(c3cnc(Sc4ccnc(N)c4Cl)c(N)n3)CC2)C1N,IC50,second compound 0.1 µM,58.1 nM
same,IC50,second compound 0.316 µM,42.2 nM
same,IC50,second compound 1 µM,33.1 nM
same,IC50,second compound 3.16 µM,26.3 nM
same,IC50,second compound 10 µM,7.76 nM
same,"viability, T/C",[1],91.6%
same,"viability, T/C",[2],89.6%
same,"viability, T/C",[3],73.9%
same,"viability, T/C",[4],68.6%
same,"viability, T/C",[5],54.2%
same,"viability, T/C",[26],45.7%
same,"viability, T/C",[6],84.5%
same,"viability, T/C",[7],84.9%
same,"viability, T/C",[8],73.1%
same,"viability, T/C",[9],60.7%
same,"viability, T/C",[10],54.6%
same,"viability, T/C",[27],43.2%
same,"viability, T/C",[11],82.5%
same,"viability, T/C",[12],81.7%
same,"viability, T/C",[13],68.6%
same,"viability, T/C",[14],61.5%
same,"viability, T/C",[15],51%
same,"viability, T/C",[28],40.5%
same,"viability, T/C",[16],74.6%
same,"viability, T/C",[17],74.3%
same,"viability, T/C",[18],67.5%
same,"viability, T/C",[19],57.3%
same,"viability, T/C",[20],46.9%
same,"viability, T/C",[29],37.9%
same,"viability, T/C",[21],63.8%
same,"viability, T/C",[22],65%
same,"viability, T/C",[23],56.4%
same,"viability, T/C",[24],47.5%
same,"viability, T/C",[25],39.9%
same,"viability, T/C",[30],33.8%
COC(=O)c1ccc2c(C(=Nc3ccc(N(C)C(=O)CN4CCN(C)CC4)cc3)c3ccccc3)c(O)[nH]c2c1 + CC1OCC2(CCN(c3cnc(Sc4ccnc(N)c4Cl)c(N)n3)CC2)C1N,IC50,second compound 0.1 µM,2340 nM
same,IC50,second compound 0.316 µM,2180 nM
same,IC50,second compound 1 µM,2250 nM
same,IC50,second compound 3.16 µM,2010 nM
same,IC50,second compound 10 µM,1270 nM
same,"viability, T/C",[5],104%
same,"viability, T/C",[26],103%
same,"viability, T/C",[31],89.3%
same,"viability, T/C",[32],85.9%
same,"viability, T/C",[33],37.4%
same,"viability, T/C",[34],0.19%
same,"viability, T/C",[10],102%
same,"viability, T/C",[27],91%
same,"viability, T/C",[35],84.8%
same,"viability, T/C",[36],81.3%
same,"viability, T/C",[37],35.4%
same,"viability, T/C",[38],0.2%
same,"viability, T/C",[15],79.2%
same,"viability, T/C",[28],84.6%
same,"viability, T/C",[39],93.5%
same,"viability, T/C",[40],75.3%
same,"viability, T/C",[41],38.8%
same,"viability, T/C",[42],0.16%
same,"viability, T/C",[20],76%
same,"viability, T/C",[29],82.4%
same,"viability, T/C",[43],83.2%
same,"viability, T/C",[44],69.2%
same,"viability, T/C",[45],36.9%
same,"viability, T/C",[46],0.37%
same,"viability, T/C",[25],66%
same,"viability, T/C",[30],73.2%
same,"viability, T/C",[47],68.5%
same,"viability, T/C",[48],60.3%
same,"viability, T/C",[49],11.7%
same,"viability, T/C",[50],1.38%
COc1cc(Nc2ncc3c(n2)-c2ccc(Cl)cc2C(c2c(F)cccc2OC)=NC3)ccc1C(=O)O + CC1OCC2(CCN(c3cnc(Sc4ccnc(N)c4Cl)c(N)n3)CC2)C1N,IC50,second compound 0.1 µM,> 10000 nM
same,IC50,second compound 0.316 µM,> 10000 nM
same,IC50,second compound 1 µM,> 10000 nM
same,IC50,second compound 3.16 µM,> 10000 nM
same,IC50,second compound 10 µM,> 10000 nM
same,"viability, T/C",[5],91.5%
same,"viability, T/C",[26],90.4%
same,"viability, T/C",[31],85.8%
same,"viability, T/C",[32],80.5%
same,"viability, T/C",[33],84.6%
same,"viability, T/C",[34],70%
same,"viability, T/C",[10],88.8%
same,"viability, T/C",[27],86.5%
same,"viability, T/C",[35],85.6%
same,"viability, T/C",[36],82.1%
same,"viability, T/C",[37],82.7%
same,"viability, T/C",[38],72.5%
same,"viability, T/C",[15],79.9%
same,"viability, T/C",[28],81.9%
same,"viability, T/C",[39],82.2%
same,"viability, T/C",[40],75.9%
same,"viability, T/C",[41],74.7%
same,"viability, T/C",[42],64.7%
same,"viability, T/C",[20],81%
same,"viability, T/C",[29],74.6%
same,"viability, T/C",[43],70.3%
same,"viability, T/C",[44],70.6%
same,"viability, T/C",[45],67.9%
same,"viability, T/C",[46],62.8%
same,"viability, T/C",[25],66.7%
same,"viability, T/C",[30],71.4%
same,"viability, T/C",[47],67.2%
same,"viability, T/C",[48],62.6%
same,"viability, T/C",[49],61.6%
same,"viability, T/C",[50],53.6%
COc1cc2nccc(Oc3ccc(NC(=O)C4(C(=O)Nc5ccc(F)cc5)CC4)cc3)c2cc1OC + CC1OCC2(CCN(c3cnc(Sc4ccnc(N)c4Cl)c(N)n3)CC2)C1N,IC50,second compound 0.1 µM,> 10000 nM
same,IC50,second compound 0.316 µM,5810 nM
same,IC50,second compound 1 µM,2580 nM
same,IC50,second compound 3.16 µM,1880 nM
same,IC50,second compound 10 µM,644 nM
same,"viability, T/C",[5],104%
same,"viability, T/C",[26],94.5%
same,"viability, T/C",[31],83.3%
same,"viability, T/C",[32],69.3%
same,"viability, T/C",[33],56.3%
same,"viability, T/C",[34],63.2%
same,"viability, T/C",[10],99.5%
same,"viability, T/C",[27],94.6%
same,"viability, T/C",[35],85.9%
same,"viability, T/C",[36],68.4%
same,"viability, T/C",[37],44.6%
same,"viability, T/C",[38],53.5%
same,"viability, T/C",[15],86.3%
same,"viability, T/C",[28],84.7%
same,"viability, T/C",[39],75.5%
same,"viability, T/C",[40],67.9%
same,"viability, T/C",[41],38.4%
same,"viability, T/C",[42],53.9%
same,"viability, T/C",[20],84.4%
same,"viability, T/C",[29],78.9%
same,"viability, T/C",[43],71.7%
same,"viability, T/C",[44],60.7%
same,"viability, T/C",[45],36.7%
same,"viability, T/C",[46],46.8%
same,"viability, T/C",[25],66.9%
same,"viability, T/C",[30],69.3%
same,"viability, T/C",[47],57.9%
same,"viability, T/C",[48],46.2%
same,"viability, T/C",[49],25.9%
same,"viability, T/C",[50],31.2%
